Assay: Half-life (renal excretion) after intravenous administration to rats
Conditions: rat, in vivo
Experimental: The chromatographically separated fractions F5 and F10 were derivatized with fluorescein isothiocyanate (FITC) to form FITC-F5 and FITC-F10. FITC-F10 was administered to rats intravenously. The interstitial fluorescence of the FITC measured at an excitation wavelength of 485-520 nm was determined. The fluorescence in the serum was measured as a control.

half-life: 25.02 ± 1.67 min
Substance: sinistrin
